Results published in patent publication US12577247B2 (BUGWORKS RESEARCH, INC., priority 2021, dated 2026).
Blank lines part the entries; values can stand above or below the compound they belong to.

How the values were obtained:
A2B receptor = biological target: T1, A2B receptor (Homo sapiens, UniProt P29275); assay: A2bR antagonism IC50, cAMP TR-FRET in HEK-293 cells, high concentration of adenosine (30 μM); details: A2BR IC50 (nM) (@30 μM Adenosine), HEK-293 cells expressing A2B receptor; agonist adenosine 30 μM; 2% HSA; inhibition of cAMP;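 further: compounds preincubated 10 min with cells, then adenosine stimulation 30 min at room temperature in buffer with Rolipram 100 µM and EHNA 30 µM, TR-FRET read after 1 h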
T1 sequence (P29275 1-332): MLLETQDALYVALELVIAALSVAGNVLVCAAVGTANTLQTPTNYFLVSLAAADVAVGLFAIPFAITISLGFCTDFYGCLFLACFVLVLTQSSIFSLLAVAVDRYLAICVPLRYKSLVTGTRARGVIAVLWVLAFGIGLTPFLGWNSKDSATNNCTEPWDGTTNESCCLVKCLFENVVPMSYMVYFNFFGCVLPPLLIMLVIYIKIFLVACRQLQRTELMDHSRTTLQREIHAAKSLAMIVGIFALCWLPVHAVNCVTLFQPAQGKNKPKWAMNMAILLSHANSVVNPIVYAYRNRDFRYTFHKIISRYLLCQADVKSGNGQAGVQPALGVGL

A2A receptor = biological target: T2, A2A receptor (Homo sapiens, UniProt P29274); assay: A2aR antagonism IC50, cAMP TR-FRET in HEK-293 cells, high concentration of adenosine (30 μM); assay type: cell-based; details: HEK-293 cells expressing A2A receptor; agonist adenosine 30 μM; 2% HSA; inhibition of cAMP; read-out: A2AR IC50 (nM) (@30 μM Adenosine);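 further: compounds added 10 min before adenosine, then 30 min stimulation at room temperature in buffer with 100 µM rolipram and 30 µM EHNA, signal read 1 h after detection reagents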
T2 construct: host or cells: HEK-293
T2 sequence (P29274 whole entry): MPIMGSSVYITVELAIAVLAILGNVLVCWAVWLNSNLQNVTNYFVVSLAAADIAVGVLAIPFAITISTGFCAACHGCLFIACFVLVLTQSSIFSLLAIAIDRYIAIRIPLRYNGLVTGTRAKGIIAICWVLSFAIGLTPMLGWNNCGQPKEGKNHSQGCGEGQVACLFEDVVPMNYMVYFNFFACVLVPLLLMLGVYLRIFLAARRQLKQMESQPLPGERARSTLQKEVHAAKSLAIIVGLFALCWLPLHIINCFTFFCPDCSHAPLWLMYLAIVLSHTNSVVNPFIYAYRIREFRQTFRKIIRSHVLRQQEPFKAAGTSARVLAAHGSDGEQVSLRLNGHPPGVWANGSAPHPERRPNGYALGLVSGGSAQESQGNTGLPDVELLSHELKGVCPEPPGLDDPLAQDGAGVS

SMILES: CCc1c(C)nn2c(N)c(C#N)c(NCCc3ccn(C4CCC4CN)n3)nc12 (stereo not drawn) [Example 109, 7-amino-5-((2-(1-(2-(aminomethyl)cyclobutyl)-1H-pyrazol-3-yl)ethyl)amino)-3-ethyl-2-methylpyrazolo[1,5-a]pyrimidine-6-carbonitrile]
IC50 (A2B receptor): 723 nM | IC50 (A2A receptor): 402 nM

SMILES: CCc1c(C)nn2c(N)c(C#N)c(NCCc3ccnn3CCCO)nc12 [Example 110, 7-amino-3-ethyl-5-((2-(1-(3-hydroxypropyl)-1H-pyrazol-5-yl)ethyl)amino)-2-methylpyrazolo[1,5-a]pyrimidine-6-carbonitrile]
IC50 (A2B receptor): > 15000 nM | IC50 (A2A receptor): > 15000 nM

SMILES: CCc1c(C)nn2c(N)c(C#N)c(NCCc3ccn(CCCO)n3)nc12 [Example 111, 7-amino-3-ethyl-5-((2-(1-(3-hydroxypropyl)-1H-pyrazol-3-yl)ethyl)amino)-2-methylpyrazolo[1,5-a]pyrimidine-6-carbonitrile]
IC50 (A2B receptor): 2380 nM | IC50 (A2A receptor): 666 nM

SMILES: Cc1nn2c(N)c(C#N)c(NCCc3ccn(C4CCCC4CO)n3)nc2c1Cl (stereo not drawn) [Example 114, 7-amino-3-chloro-5-((2-(1-(2-(hydroxymethyl)cyclopentyl)-1H-pyrazol-3-yl)ethyl)amino)-2-methylpyrazolo[1,5-a]pyrimidine-6-carbonitrile]
IC50 (A2B receptor): 4380 nM | IC50 (A2A receptor): 96 nM

SMILES: Cc1nn2c(N)c(C#N)c(NCCc3ccn(C4CCC4CNCCO)n3)nc2c1Cl (stereo not drawn) [Example 117, 7-amino-3-chloro-5-((2-(1-(2-(((2-hydroxyethyl)amino)methyl)cyclobutyl)-1H-pyrazol-3-yl)ethyl)amino)-2-methylpyrazolo[1,5-a]pyrimidine-6-carbonitrile]
IC50 (A2B receptor): 3060 nM | IC50 (A2A receptor): 66 nM

SMILES: CCc1c(C)nn2c(N)c(C#N)c(NCCc3ccn(C4CC(CO)C4)n3)nc12 (stereo not drawn) [Example 123, 7-amino-3-ethyl-5-((2-(1-(3-(hydroxymethyl)cyclobutyl)-1H-pyrazol-3-yl)ethyl)amino)-2-methylpyrazolo[1,5-a]pyrimidine-6-carbonitrile]
IC50 (A2B receptor): 1580 nM | IC50 (A2A receptor): 405 nM

SMILES: CCc1c(C)nn2c(N)c(C#N)c(NCCc3ccn(C4(CCO)CC4)n3)nc12 [Example 124, 7-amino-3-ethyl-5-((2-(1-(1-(2-hydroxyethyl)cyclopropyl)-1H-pyrazol-3-yl)ethyl)amino)-2-methylpyrazolo[1,5-a] pyrimidine-6-carbonitrile]
IC50 (A2B receptor): 2220 nM | IC50 (A2A receptor): 126 nM

SMILES: Cc1nn2c(N)c(C#N)c(NCCc3cccn(CCN)c3=O)nc2c1Cl [Example 125, 7-amino-5-((2-(1-(2-aminoethyl)-2-oxo-1,2-dihydropyridin-3-yl)ethyl)amino)-3-chloro-2-methylpyrazolo[1,5-a] pyrimidine-6-carbonitrile]
IC50 (A2B receptor): > 15000 nM | IC50 (A2A receptor): 767 nM

SMILES: Cc1nn2c(N)c(C#N)c(NCCc3ccn(C4CCC4CO)n3)nc2c1Br (stereo not drawn) [Example 130, 7-amino-3-bromo-5-((2-(1-(2-(hydroxymethyl)cyclobutyl)-1H-pyrazol-3-yl)ethyl)amino)-2-methylpyrazolo[1,5-a]pyrimidine-6-carbonitrile]
IC50 (A2B receptor): 5880 nM | IC50 (A2A receptor): 280 nM

SMILES: CCc1c(C(F)F)nn2c(N)c(C#N)c(NCCc3cccn(CCO)c3=O)nc12 [Example 131, 7-amino-2-(difluoromethyl)-3-ethyl-5-((2-(1-(2-hydroxyethyl)-2-oxo-1,2-dihydropyridin-3-yl)ethyl)amino) pyrazolo[1,5-a]pyrimidine-6-carbonitrile]
IC50 (A2B receptor): > 15000 nM | IC50 (A2A receptor): 1460 nM

SMILES: Cc1nn2c(N)c(C#N)c(NCCc3cccn(CCCO)c3=O)nc2c1C [Example 138, 7-amino-5-((2-(1-(3-hydroxypropyl)-2-oxo-1,2-dihydropyridin-3-yl)ethyl)amino)-2,3-dimethylpyrazolo[1,5-a] pyrimidine-6-carbonitrile]
IC50 (A2B receptor): 2050 nM | IC50 (A2A receptor): 88 nM

Further lines, results first:

IC50 (A2B receptor): 1070 nM | IC50 (A2A receptor): 392 nM
SMILES: CCc1c(C)nn2c(N)c(C#N)c(NCCc3cccn(CCO)c3=O)nc12 [Example 108, 7-amino-3-ethyl-5-((2-(1-(2-hydroxyethyl)-2-oxo-1,2-dihydropyridin-3-yl)ethyl)amino)-2-methylpyrazolo[1,5-a]pyrimidine-6-carbonitrile]

IC50 (A2B receptor): 10800 nM | IC50 (A2A receptor): 84 nM
SMILES: Cc1nn2c(N)c(C#N)c(NCCc3ccn(C4(CCO)CC4)n3)nc2c1Cl [Example 112, 7-amino-3-chloro-5-((2-(1-(1-(2-hydroxyethyl)cyclopropyl)-1H-pyrazol-3-yl)ethyl)amino)-2-methylpyrazolo[1,5-a] pyrimidine-6-carbonitrile]

IC50 (A2B receptor): 1050 nM | IC50 (A2A receptor): 187 nM
SMILES: CCc1c(C)nn2c(N)c(C#N)c(NCCc3cccn(CCCO)c3=O)nc12 [Example 113, 7-amino-3-ethyl-5-((2-(1-(3-hydroxypropyl)-2-oxo-1,2-dihydropyridin-3-yl)ethyl)amino)-2-methylpyrazolo[1,5-a]pyrimidine-6-carbonitrile]

IC50 (A2B receptor): 2100 nM | IC50 (A2A receptor): 427 nM
SMILES: Cc1nn2c(N)c(C#N)c(NCCc3ccn(C4CCC4CO)n3)nc2c1CC1CC1 (stereo not drawn) [Example 116, 7-amino-3-(cyclopropylmethyl)-5-((2-(1-(2-(hydroxymethyl)cyclobutyl)-1H-pyrazol-3-yl)ethyl)amino)-2-methylpyrazolo[1,5-a]pyrimidine-6-carbonitrile]

IC50 (A2B receptor): 7850 nM | IC50 (A2A receptor): 78 nM
SMILES: Cc1nn2c(N)c(C#N)c(NCCc3ccn(C4CCCC4CN)n3)nc2c1Cl (stereo not drawn) [Example 118, 7-amino-5-((2-(1-(2-(aminomethyl)cyclopentyl)-1H-pyrazol-3-yl)ethyl)amino)-3-chloro-2-methylpyrazolo[1,5-a] pyrimidine-6-carbonitrile]

IC50 (A2B receptor): 3410 nM | IC50 (A2A receptor): 260 nM
SMILES: Cc1cccc(CCNc2nc3c(Cl)c(C)nn3c(N)c2C#N)n1 [Example 119, 7-amino-3-chloro-2-methyl-5-((2-(6-methylpyridin-2-yl)ethyl)amino) pyrazolo[1,5-a]pyrimidine-6-carbonitrile]

IC50 (A2B receptor): 8630 nM | IC50 (A2A receptor): 529 nM
SMILES: CCc1cccc(CCNc2nc3c(Cl)c(C)nn3c(N)c2C#N)n1 [Example 120, 7-amino-3-chloro-5-((2-(6-ethylpyridin-2-yl)ethyl)amino)-2-methylpyrazolo[1,5-a]pyrimidine-6-carbonitrile]

IC50 (A2B receptor): 3550 nM | IC50 (A2A receptor): 1890 nM
SMILES: CCc1c(C)nn2c(N)c(C#N)c(NCCc3cccn(CCN)c3=O)nc12 [Example 126, 7-amino-5-((2-(1-(2-aminoethyl)-2-oxo-1,2-dihydropyridin-3-yl)ethyl)amino)-3-ethyl-2-methylpyrazolo[1,5-a] pyrimidine-6-carbonitrile]

IC50 (A2B receptor): 2170 nM | IC50 (A2A receptor): 161 nM
SMILES: Cc1nn2c(N)c(C#N)c(NCCc3ccn(C4COCC4CO)n3)nc2c1Cl (stereo not drawn) [Example 127, 7-amino-3-chloro-5-((2-(1-(4-(hydroxymethyl)tetrahydrofuran-3-yl)-1H-pyrazol-3-yl)ethyl)amino)-2-methylpyrazolo[1,5-a] pyrimidine-6-carbonitrile]

IC50 (A2B receptor): 1110 nM | IC50 (A2A receptor): 368 nM
SMILES: CCc1c(C)nn2c(N)c(C#N)c(NCCc3cccn(CC4CC(O)C4)c3=O)nc12 (stereo not drawn) [Example 128, 7-amino-3-ethyl-5-((2-(1-((3-hydroxycyclobutyl)methyl)-2-oxo-1,2-dihydropyridin-3-yl)ethyl)amino)-2-methylpyrazolo[1,5-a]pyrimidine-6-carbonitrile]

IC50 (A2B receptor): 5660 nM | IC50 (A2A receptor): 237 nM
SMILES: Cc1nn2c(N)c(C#N)c(NCCc3cccn(CCCN)c3=O)nc2c1Cl [Example 129, 7-amino-5-((2-(1-(3-aminopropyl)-2-oxo-1,2-dihydropyridin-3-yl)ethyl)amino)-3-chloro-2-methylpyrazolo[1,5-a]pyrimidine-6-carbonitrile]

IC50 (A2B receptor): 2510 nM | IC50 (A2A receptor): 475 nM
SMILES: CCc1c(C)nn2c(N)c(C#N)c(NCCc3ccn(C4CCC4CNCC(N)=O)n3)nc12 (stereo not drawn) [Example 134, 2-(((2-(3-(2-((7-amino-6-cyano-3-ethyl-2-methylpyrazolo[1,5-a]pyrimidin-5-yl)amino)ethyl)-1H-pyrazol-1-yl)cyclobutyl)methyl)amino) acetamide]

IC50 (A2B receptor): 2220 nM | IC50 (A2A receptor): 1310 nM
SMILES: CCc1c(C)nn2c(N)c(C#N)c(NCCc3cccc(C(O)C(F)(F)F)n3)nc12 (stereo not drawn) [Example 135, 7-amino-3-ethyl-2-methyl-5-((2-(6-(2,2,2-trifluoro-1-hydroxyethyl)pyridine-2-yl)ethyl)amino) pyrazolo[1,5-a]pyrimidine-6 carbonitrile]

IC50 (A2B receptor): 2610 nM | IC50 (A2A receptor): 506 nM
SMILES: CCc1c(C)nn2c(N)c(C#N)c(NCCc3cccn(CCCN)c3=O)nc12 [Example 136, 7-amino-5-((2-(1-(3-aminopropyl)-2-oxo-1,2-dihydropyridin-3-yl)ethyl)amino)-3-ethyl-2-methylpyrazolo[1,5-a]pyrimidine-6-carbonitrile]

IC50 (A2B receptor): > 15000 nM | IC50 (A2A receptor): 820 nM
SMILES: Cc1nn2c(N)c(C#N)c(NCCc3ccn(C4(CO)CC4)n3)nc2c1CC1CCC1 [Example 137, 7-amino-3-(cyclobutylmethyl)-5-((2-(1-(1-(hydroxymethyl)cyclopropyl)-1H-pyrazol-3-yl)ethyl)amino)-2-methylpyrazolo[1,5-a]pyrimidine-6-carbonitrile]

IC50 (A2B receptor): 482 nM | IC50 (A2A receptor): 165 nM
SMILES: CCc1c(C)nn2c(N)c(C#N)c(NCCc3cccc(CCO)n3)nc12 [Example 139, 7-amino-3-ethyl-5-((2-(6-(2-hydroxyethyl)pyridine-2-yl)ethyl)amino)-2-methylpyrazolo[1,5-a]pyrimidine-6-carbonitrile]
